Source: patent US5840684A, “Glycopeptide antibiotic derivatives” (Eli Lilly and Company, priority 1995, dated 1998)
In brackets after ≈: the same amount, converted by molar mass.

Experiments:
[1] = test system: Staphylococcus aureus X778; experiment: broth micro-dilution MIC; format: cell-based
Procedure: (§1) The MIC's were determined using a standard broth micro-dilution assay.

[2] = test system: Staphylococcus aureus SA1199; experiment: broth micro-dilution MIC; format: cell-based
Procedure: as §1

[3] = test system: Staphylococcus aureus 489; experiment: broth micro-dilution MIC; format: cell-based
Procedure: as §1

[4] = test system: Staphylococcus aureus SA1199A; experiment: broth micro-dilution MIC; format: cell-based
Procedure: as §1

[5] = test system: Streptococcus pyogenes C203; experiment: broth micro-dilution MIC; format: cell-based
Procedure: as §1

Entercoccus faecium 276 = experiment: broth micro-dilution MIC; format: cell-based
Procedure: as §1

[6] = test system: Staphylococcus aureus 446; experiment: broth micro-dilution MIC; format: cell-based
Procedure: as §1

[7] = test system: Staphylococcus aureus 491; experiment: broth micro-dilution MIC; format: cell-based
Procedure: as §1

[8] = test system: Staphylococcus aureus X400; experiment: broth micro-dilution MIC; format: cell-based
Procedure: as §1

[9] = test system: Entercoccus faecium 180-1; experiment: broth micro-dilution MIC; format: cell-based
Procedure: as §1

[10] = test system: Staphylococcus aureus 447; experiment: broth micro-dilution MIC; format: cell-based
Procedure: as §1

[11] = test system: vancomycin-resistant enterococci; experiment: broth micro-dilution, mean geometric MIC; format: cell-based, Enterococcus faecium and Enterococcus faecalis; settings: enterococci, 24-hour incubation
Entercoccus faecium 2041 = experiment: broth micro-dilution MIC; format: cell-based; settings: Entercoccus faecium 2041
Procedure: (§2) The formula I compounds have in vitro and in vivo activity against Gram-positive pathogenic bacteria. The MIC's were determined using a standard broth micro-dilution assay.

[12] = test system: Haemophilus influenzae RD; experiment: broth micro-dilution MIC; format: cell-based; settings: Haemophilus influenzae RD
Procedure: as §2

[13] = test system: Staphylococcus haemolyticus 415; experiment: broth micro-dilution MIC; format: cell-based
Procedure: as §2

[14] = test system: Enterococcus gallinarum 245; experiment: broth micro-dilution MIC; format: cell-based; settings: Enterococcus gallinarum 245
Procedure: as §2

Escherichia coli EC14 = experiment: broth micro-dilution MIC; format: cell-based
Procedure: as §2

[15] = test system: Staphylococcus epidermidis 270; experiment: broth micro-dilution MIC; format: cell-based
Procedure: as §2

[16] = test system: Streptococcus pneumoniae P1; experiment: broth micro-dilution MIC; format: cell-based
Procedure: as §2

[17] = test system: Staphylococcus haemolyticus 105; experiment: broth micro-dilution MIC; format: cell-based
Procedure: as §2

Entercoccus faecium 180 = experiment: broth micro-dilution MIC; format: cell-based; settings: Entercoccus faecium 180
Procedure: as §2

[18] = test system: vancomycin-susceptible enterococci; experiment: broth micro-dilution, mean geometric MIC; format: cell-based, Enterococcus faecium and Enterococcus faecalis; settings: enterococci, 24-hour incubation
[19] = test system: Staphylococcus aureus SA1199B; format: cell-based
Procedure: as §1

[20] = test system: Staphylococcus aureus S13E; format: cell-based
Procedure: as §1

SMILES	MIC [1]	MIC [2]	MIC [3]	MIC [4]	MIC [5]	MIC (Entercoccus faecium 276)	MIC [6]	MIC [7]	MIC [8]	MIC [9]	MIC [10]	mean geometric MIC, Vancomycin Resistant Strains [11]	MIC (Entercoccus faecium 2041)	MIC [12]	MIC [13]	MIC [14]	MIC (Escherichia coli EC14)	MIC [15]	MIC [16]	MIC [17]	other results
CC(C)CC(C(=O)NC1C(=O)NC(CC(N)=O)C(=O)NC2C(=O)NC3C(=O)NC(C(=O)NC(C(=O)O)c4cc(O)cc(O)c4-c4cc3ccc4O)C(OC3CC(C)(N)C(O)C(C)O3)c3ccc(c(Cl)c3)Oc3cc2cc(c3OC2OC(CO)C(O)C(O)C2OC2CC(C)(NCc3ccc4ccccc4n3)C(O)C(C)O2)Oc2ccc(cc2Cl)C1O)N(C)Cc1ccc2ccccc2n1 (stereo not drawn) [Compound 285]	1 µg/mL (≈ 0.533 µM)	2 µg/mL (≈ 1.07 µM)	1 µg/mL (≈ 0.533 µM)	0.25 µg/mL (≈ 0.133 µM)	≤ 0.06 µg/mL	0.5 µg/mL (≈ 0.267 µM)	4 µg/mL (≈ 2.13 µM)	4 µg/mL (≈ 2.13 µM)	4 µg/mL (≈ 2.13 µM)	0.25 µg/mL (≈ 0.133 µM)	32 µg/mL (≈ 17.1 µM)	90 µg/mL	0.5 µg/mL (≈ 0.267 µM)	> 64 µg/mL	16 µg/mL (≈ 8.53 µM)	16 µg/mL (≈ 8.53 µM)	> 64 µg/mL	8 µg/mL (≈ 4.27 µM)	≤ 0.06 µg/mL	16 µg/mL (≈ 8.53 µM)	MIC (Entercoccus faecium 180): 16 µg/mL (≈ 8.53 µM); mean geometric MIC, Vancomycin Sensitive Strains [18]: 2.4 µg/mL; MIC [19]: 1 µg/mL (≈ 0.533 µM); MIC [20]: 1 µg/mL (≈ 0.533 µM)
CC(C)CC(C(=O)NC1C(=O)NC(CC(N)=O)C(=O)NC2C(=O)NC3C(=O)NC(C(=O)NC(C(=O)O)c4cc(O)cc(O)c4-c4cc3ccc4O)C(OC3CC(C)(N)C(O)C(C)O3)c3ccc(c(Cl)c3)Oc3cc2cc(c3OC2OC(CO)C(O)C(O)C2OC2CC(C)(NCc3ccc(-c4ccccc4)cc3)C(O)C(C)O2)Oc2ccc(cc2Cl)C1O)N(C)Cc1ccc(-c2ccccc2)cc1 (stereo not drawn) [Compound 251]	≤ 0.06 µg/mL	≤ 0.06 µg/mL	≤ 0.06 µg/mL	≤ 0.06 µg/mL	≤ 0.06 µg/mL	≤ 0.06 µg/mL	0.25 µg/mL (≈ 0.13 µM)	≤ 0.06 µg/mL	≤ 0.06 µg/mL	≤ 0.06 µg/mL	0.125 µg/mL (≈ 0.0649 µM)	2 µg/mL	≤ 0.06 µg/mL	> 64 µg/mL	4 µg/mL (≈ 2.08 µM)	4 µg/mL (≈ 2.08 µM)	> 64 µg/mL	0.25 µg/mL (≈ 0.13 µM)	≤ 0.06 µg/mL	2 µg/mL (≈ 1.04 µM)	MIC (Entercoccus faecium 180): 2 µg/mL (≈ 1.04 µM); mean geometric MIC, Vancomycin Sensitive Strains [18]: 0.66 µg/mL; MIC [19]: ≤ 0.06 µg/mL; MIC [20]: ≤ 0.06 µg/mL
CNC(CC(C)C)C(=O)NC1C(=O)NC(CC(N)=O)C(=O)NC2C(=O)NC3C(=O)NC(C(=O)NC(C(=O)O)c4cc(O)cc(O)c4-c4cc3ccc4O)C(OC3CC(C)(NCc4ccc(OCCOC(C)(C)C)cc4)C(O)C(C)O3)c3ccc(c(Cl)c3)Oc3cc2cc(c3OC2OC(CO)C(O)C(O)C2OC2CC(C)(NCc3ccc(OCCOC(C)(C)C)cc3)C(O)C(C)O2)Oc2ccc(cc2Cl)C1O (stereo not drawn) [Compound 288]	2 µg/mL (≈ 0.997 µM)	2 µg/mL (≈ 0.997 µM)	2 µg/mL (≈ 0.997 µM)	1 µg/mL (≈ 0.499 µM)	≤ 0.06 µg/mL	2 µg/mL (≈ 0.997 µM)	2 µg/mL (≈ 0.997 µM)	2 µg/mL (≈ 0.997 µM)	2 µg/mL (≈ 0.997 µM)	1 µg/mL (≈ 0.499 µM)	2 µg/mL (≈ 0.997 µM)	11 µg/mL	1 µg/mL (≈ 0.499 µM)	> 64 µg/mL	4 µg/mL (≈ 1.99 µM)	2 µg/mL (≈ 0.997 µM)	> 64 µg/mL	1 µg/mL (≈ 0.499 µM)	≤ 0.06 µg/mL	2 µg/mL (≈ 0.997 µM)	MIC (Entercoccus faecium 180): 4 µg/mL (≈ 1.99 µM); mean geometric MIC, Vancomycin Sensitive Strains [18]: 1.7 µg/mL; MIC [19]: 1 µg/mL (≈ 0.499 µM); MIC [20]: 2 µg/mL (≈ 0.997 µM)
CC(C)CC(C(=O)NC1C(=O)NC(CC(N)=O)C(=O)NC2C(=O)NC3C(=O)NC(C(=O)NC(C(=O)O)c4cc(O)cc(O)c4-c4cc3ccc4O)C(OC3CC(C)(N)C(O)C(C)O3)c3ccc(c(Cl)c3)Oc3cc2cc(c3OC2OC(CO)C(O)C(O)C2OC2CC(C)(N)C(O)C(C)O2)Oc2ccc(cc2Cl)C1O)N(C)Cc1ccc(-c2ccc(Cl)cc2)cc1.O=C(O)C(F)(F)F (stereo not drawn) [Compound 252]	≤ 0.06 µg/mL	0.125 µg/mL	≤ 0.06 µg/mL	≤ 0.06 µg/mL	≤ 0.06 µg/mL	≤ 0.06 µg/mL	0.125 µg/mL	≤ 0.06 µg/mL	0.125 µg/mL	≤ 0.06 µg/mL	≤ 0.06 µg/mL	9.5 µg/mL	≤ 0.06 µg/mL	> 64 µg/mL	1 µg/mL	1 µg/mL	> 64 µg/mL	0.125 µg/mL	≤ 0.06 µg/mL	0.5 µg/mL	MIC (Entercoccus faecium 180): 0.5 µg/mL; mean geometric MIC, Vancomycin Sensitive Strains [18]: 0.1 µg/mL; MIC [19]: ≤ 0.06 µg/mL; MIC [20]: 0.125 µg/mL
COc1cc(CNC2(C)CC(OC3C(Oc4c5cc6cc4Oc4ccc(cc4Cl)C(OC4CC(C)(N)C(O)C(C)O4)C4NC(=O)C(NC(=O)C6NC(=O)C(CC(N)=O)NC(=O)C(NC(=O)C(CC(C)C)N(C)Cc6ccc(OCc7ccccc7)c(OC)c6)C(O)c6ccc(c(Cl)c6)O5)c5ccc(O)c(c5)-c5c(O)cc(O)cc5C(C(=O)O)NC4=O)OC(CO)C(O)C3O)OC(C)C2O)ccc1OCc1ccccc1 (stereo not drawn) [Compound 268]	2 µg/mL (≈ 0.978 µM)	4 µg/mL (≈ 1.96 µM)	1 µg/mL (≈ 0.489 µM)	0.5 µg/mL (≈ 0.244 µM)	≤ 0.06 µg/mL	2 µg/mL (≈ 0.978 µM)	2 µg/mL (≈ 0.978 µM)	1 µg/mL (≈ 0.489 µM)	2 µg/mL (≈ 0.978 µM)	0.25 µg/mL (≈ 0.122 µM)	4 µg/mL (≈ 1.96 µM)	6.7 µg/mL	1 µg/mL (≈ 0.489 µM)	> 64 µg/mL	4 µg/mL (≈ 1.96 µM)	4 µg/mL (≈ 1.96 µM)	> 64 µg/mL	1 µg/mL (≈ 0.489 µM)	≤ 0.06 µg/mL	8 µg/mL (≈ 3.91 µM)	MIC (Entercoccus faecium 180): 0.5 µg/mL (≈ 0.244 µM); mean geometric MIC, Vancomycin Sensitive Strains [18]: 0.87 µg/mL; MIC [19]: 2 µg/mL (≈ 0.978 µM); MIC [20]: 4 µg/mL (≈ 1.96 µM)
CC(C)CC(C(=O)NC1C(=O)NC(CC(N)=O)C(=O)NC2C(=O)NC3C(=O)NC(C(=O)NC(C(=O)O)c4cc(O)cc(O)c4-c4cc3ccc4O)C(OC3CC(C)(NCc4cccc5c([N+](=O)[O-])cccc45)C(O)C(C)O3)c3ccc(c(Cl)c3)Oc3cc2cc(c3OC2OC(CO)C(O)C(O)C2OC2CC(C)(N)C(O)C(C)O2)Oc2ccc(cc2Cl)C1O)N(C)Cc1cccc2c([N+](=O)[O-])cccc12 (stereo not drawn) [Compound 286]	4 µg/mL (≈ 2.04 µM)	2 µg/mL (≈ 1.02 µM)	2 µg/mL (≈ 1.02 µM)	≤ 0.06 µg/mL	≤ 0.06 µg/mL	1 µg/mL (≈ 0.509 µM)	1 µg/mL (≈ 0.509 µM)	2 µg/mL (≈ 1.02 µM)	2 µg/mL (≈ 1.02 µM)	0.25 µg/mL (≈ 0.127 µM)	8 µg/mL (≈ 4.08 µM)	19 µg/mL	1 µg/mL (≈ 0.509 µM)	> 64 µg/mL	4 µg/mL (≈ 2.04 µM)	4 µg/mL (≈ 2.04 µM)	> 64 µg/mL	4 µg/mL (≈ 2.04 µM)	≤ 0.06 µg/mL	8 µg/mL (≈ 4.08 µM)	MIC (Entercoccus faecium 180): 8 µg/mL (≈ 4.08 µM); mean geometric MIC, Vancomycin Sensitive Strains [18]: 1.1 µg/mL; MIC [19]: 4 µg/mL (≈ 2.04 µM); MIC [20]: 4 µg/mL (≈ 2.04 µM)
